Data reported in patent US9738655B2, “Tetrahydroisoquinolines containing substituted azoles as factor XIa inhibitors” (BRISTOL-MYERS SQUIBB COMPANY, priority 2013, dated 2017).
Structures can show the parent of a compound that is named as a salt. Where two headings read alike, the source gives them in different places.

Tests used:
[1] = target: purified human plasma kallikrein (Homo sapiens (Human), UniProt P03952); test: Plasma kallikrein enzyme inhibition assay (chromogenic substrate S-2302); assay type: biochemical
[2] = target: purified human Factor XIa (Homo sapiens (Human), UniProt P03951); test: Factor XIa enzyme inhibition assay (chromogenic substrate S-2366); conditions: read-out: Factor XIa Ki
[3] = measured at 25° C. (no asterisk)
[4] = measured at 25° C. (no asterisk), TFA salt

Chain of purified human plasma kallikrein (P03952 391-638): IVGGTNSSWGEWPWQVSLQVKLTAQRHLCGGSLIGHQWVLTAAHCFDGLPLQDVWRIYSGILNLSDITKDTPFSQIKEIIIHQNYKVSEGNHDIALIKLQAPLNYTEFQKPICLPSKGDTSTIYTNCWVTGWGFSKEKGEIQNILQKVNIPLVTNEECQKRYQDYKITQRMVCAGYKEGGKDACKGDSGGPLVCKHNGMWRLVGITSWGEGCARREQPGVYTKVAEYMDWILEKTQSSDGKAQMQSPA
Chain of purified human plasma kallikrein (P03952 20-390 partner): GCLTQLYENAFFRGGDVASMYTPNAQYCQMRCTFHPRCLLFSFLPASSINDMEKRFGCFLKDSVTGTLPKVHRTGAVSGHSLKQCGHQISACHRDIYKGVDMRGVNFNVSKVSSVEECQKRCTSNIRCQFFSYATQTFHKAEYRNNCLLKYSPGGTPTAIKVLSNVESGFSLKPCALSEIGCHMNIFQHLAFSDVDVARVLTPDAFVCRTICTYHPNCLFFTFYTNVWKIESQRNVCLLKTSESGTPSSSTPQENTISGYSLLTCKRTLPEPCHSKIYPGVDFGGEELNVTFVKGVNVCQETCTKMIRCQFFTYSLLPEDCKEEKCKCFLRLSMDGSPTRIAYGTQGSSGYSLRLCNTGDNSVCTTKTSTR
Chain of purified human Factor XIa (P03951 388-625): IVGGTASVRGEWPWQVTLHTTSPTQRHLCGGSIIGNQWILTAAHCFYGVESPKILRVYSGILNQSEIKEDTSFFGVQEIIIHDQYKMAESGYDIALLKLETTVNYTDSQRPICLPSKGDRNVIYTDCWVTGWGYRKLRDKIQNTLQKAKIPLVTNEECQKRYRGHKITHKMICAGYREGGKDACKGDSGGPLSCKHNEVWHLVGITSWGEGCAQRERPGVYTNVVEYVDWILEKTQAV
Chain of purified human Factor XIa (P03951 19-387 partner): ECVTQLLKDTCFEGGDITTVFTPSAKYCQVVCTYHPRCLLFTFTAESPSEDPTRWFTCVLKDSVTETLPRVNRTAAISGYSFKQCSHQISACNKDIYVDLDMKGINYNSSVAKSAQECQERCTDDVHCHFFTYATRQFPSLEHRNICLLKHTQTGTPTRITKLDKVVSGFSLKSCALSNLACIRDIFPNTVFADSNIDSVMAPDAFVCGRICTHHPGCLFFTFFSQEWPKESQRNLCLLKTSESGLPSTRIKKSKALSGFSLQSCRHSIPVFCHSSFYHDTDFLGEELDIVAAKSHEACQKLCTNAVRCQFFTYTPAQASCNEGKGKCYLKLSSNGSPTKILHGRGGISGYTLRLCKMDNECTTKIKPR

Row | Ki [1, 3] [nM] | Ki ([2]; measured at 25° C.) [nM] | Ki ([1]; measured at 37° C. (*)) [nM] | SMILES | also measured
1 | 179 | 769 |  | Cn1cc2c(n1)CCN(C(=O)c1cn(-c3cccc(Cl)c3F)nn1)C2C(=O)Nc1ccc(C(=O)O)cc1 (centres unmarked) [Example 220, 4-(5-(1-(3-Chloro-2-fluorophenyl)-1H-1,2,3-triazole-4-carbonyl)-2-methyl-4,5,6,7-tetrahydro-2H-pyrazolo[4,3-c]pyridine-4-carboxamido)benzoic acid] | 
2 | 9.56 | 179 |  | Cc1nn(C)c2c1C(C(=O)Nc1ccc(C(=O)O)cc1)N(C(=O)c1cn(-c3cccc(Cl)c3F)nn1)CC2 (centres unmarked) [Example 221, 4-(5-(1-(3-Chloro-2-fluorophenyl)-1H-1,2,3-triazole-4-carbonyl)-1,3-dimethyl-4,5,6,7-tetrahydro-1H-pyrazolo[4,3-c]pyridine-4-carboxamido)benzoic acid] | 
3 | 10.4 | 30 |  | Cc1c2c(nn1C)CCN(C(=O)c1cn(-c3cccc(Cl)c3F)nn1)C2C(=O)Nc1ccc(C(=O)O)cc1 (centres unmarked) [Example 222, 4-(5-(1-(3-Chloro-2-fluorophenyl)-1H-1,2,3-triazole-4-carbonyl)-2,3-dimethyl-4,5,6,7-tetrahydro-2H-pyrazolo[4,3-c]pyridine-4-carboxamido)benzoic acid] | 
4 | 3510 | 2630 |  | CC(C)c1nnc2n1CCN(C(=O)c1cn(-c3cccc(Cl)c3F)nn1)C2C(=O)Nc1ccc(C(=O)O)cc1 (centres unmarked) [Example 223, 4-(7-(1-(3-Chloro-2-fluorophenyl)-1H-1,2,3-triazole-4-carbonyl)-3-isopropyl-5,6,7,8-tetrahydro-[1,2,4]triazolo[4,3-a]pyrazine-8-carboxamido)benzoic acid] | 
5 | 92 | < 5 |  | COC(C)(C)C1CCN(c2cccc3c2CCN(C(=O)c2cnn(-c4cccc(Cl)c4F)c2)C3C(=O)Nc2ccc(C(=O)O)cc2)CC1 (centres unmarked) [Example 224, 4-(2-(1-(3-Chloro-2-fluorophenyl)-1H-pyrazole-4-carbonyl)-5-(4-(2-methoxypropan-2-yl)piperidin-1-yl)-1,2,3,4-tetrahydroisoquinoline-1-carboxamido)benzoic acid, TFA salt] | 
6 | 48.8 | < 5 |  | CC(CO)(CO)COC(C)(C)C1CCN(c2cccc3c2CCN(C(=O)c2cnn(-c4cccc(Cl)c4F)c2)C3C(=O)Nc2ccc(C(=O)O)cc2)CC1 (centres unmarked) [Example 225, 4-(2-(1-(3-Chloro-2-fluorophenyl)-1H-pyrazole-4-carbonyl)-5-(4-(2-(3-hydroxy-2-(hydroxymethyl)-2-methylpropoxy)propan-2-yl)piperidin-1-yl)-1,2,3,4-tetrahydroisoquinoline-1-carboxamido)benzoic acid, TFA salt] | 
7 | 7.65 | < 5 |  | O=C(O)c1ccc(NC(=O)C2c3cccc(N4CCN(C5COC5)CC4)c3CCN2C(=O)c2cn(-c3cccc(Cl)c3F)nn2)cc1 (centres unmarked) [Example 226, 4-(2-(1-(3-Chloro-2-fluorophenyl)-1H-1,2,3-triazole-4-carbonyl)-5-(4-(oxetan-3-yl)piperazin-1-yl)-1,2,3,4-tetrahydroisoquinoline-1-carboxamido)benzoic acid, TFA salt] | 
8 |  | < 5 | 124 | O=C(O)c1ccc(NC(=O)C2c3cccc(N4CCN(CC(F)(F)F)CC4)c3CCN2C(=O)c2cn(-c3cccc(Cl)c3F)nn2)cc1 (centres unmarked) [Example 229, 4-(2-(1-(3-Chloro-2-fluorophenyl)-1H-1,2,3-triazole-4-carbonyl)-5-(4-(2,2,2-trifluoroethyl)piperazin-1-yl)-1,2,3,4-tetrahydroisoquinoline-1-carboxamido) benzoic acid, TFA salt] | 
9 |  | 136 | 1290 | O=C(O)c1ccc(NC(=O)[C@H]2c3cccc(N4CCN(CC(F)(F)F)CC4)c3CCN2C(=O)[C@H]2CC(c3cccc(Cl)c3F)=NO2)cc1 [Example 231, 4-((R)-2-((R)-3-(3-Chloro-2-fluorophenyl)-4,5-dihydroisoxazole-5-carbonyl)-5-(4-(2,2,2-trifluoroethyl)piperazin-1-yl)-1,2,3,4-tetrahydroisoquinoline-1-carboxamido)benzoic acid, 2 TFA salt] | 
10 |  | 4130 | 29.7 | COC(=O)c1ccc(NC(=O)[C@@H]2c3cccc(N4CCN(C5COC5)CC4)c3CCN2C(=O)[C@H]2CC(c3cccc(Cl)c3F)=NO2)cc1 [Example 232, Methyl 4-((S)-2-((R)-3-(3-chloro-2-fluorophenyl)-4,5-dihydroisoxazole-5-carbonyl)-5-(4-(oxetan-3-yl)piperazin-1-yl)-1,2,3,4-tetrahydroisoquinoline-1-carboxamido)benzoate, 2 TFA salt] | 
11 |  | 5.45 | > 13000 | COC(=O)c1ccc(NC(=O)[C@H]2c3cccc(N4CCN(C5COC5)CC4)c3CCN2C(=O)[C@H]2CC(c3cccc(Cl)c3F)=NO2)cc1 [Example 233, Methyl 4-((R)-2-((R)-3-(3-chloro-2-fluorophenyl)-4,5-dihydroisoxazole-5-carbonyl)-5-(4-(oxetan-3-yl)piperazin-1-yl)-1,2,3,4-tetrahydroisoquinoline-1-carboxamido)benzoate, 2 TFA salt] | 
12 |  | < 5 | 68.2 | Cn1ncnc1-c1cccc2c1CCN(C(=O)c1cn(-c3cccc(Cl)c3F)nn1)C2C(=O)Nc1ccc(C(=O)O)cc1 (centres unmarked) [Example 245, 4-(2-(1-(3-Chloro-2-fluorophenyl)-1H-1,2,3-triazole-4-carbonyl)-5-(1-methyl-1H-1,2,4-triazol-5-yl)-1,2,3,4-tetrahydroisoquinoline-1-carboxamido)benzoic acid, TFA salt] | 
13 |  | < 5 | 29.7 | Cn1cnc(-c2cccc3c2CCN(C(=O)c2cn(-c4cccc(Cl)c4F)nn2)C3C(=O)Nc2ccc(C(=O)O)cc2)c1 (centres unmarked) [Example 246, 4-(2-(1-(3-Chloro-2-fluorophenyl)-1H-1,2,3-triazole-4-carbonyl)-5-(1-methyl-1H-imidazol-4-yl)-1,2,3,4-tetrahydroisoquinoline-1-carboxamido)benzoic acid, TFA salt] | 
14 |  | < 5 | 20.4 | O=C(O)c1ccc(NC(=O)C2c3cccc(-n4cnnc4)c3CCN2C(=O)c2cn(-c3cccc(Cl)c3F)nn2)cc1 (centres unmarked) [Example 249, 4-(2-(1-(3-Chloro-2-fluorophenyl)-1H-1,2,3-triazole-4-carbonyl)-5-(4H-1,2,4-triazol-4-yl)-1,2,3,4-tetrahydroisoquinoline-1-carboxamido)benzoic acid, TFA salt] | 
15 |  | < 5 | 6.8 | Cc1ncn(-c2cccc3c2CCN(C(=O)[C@H]2CC(c4cccc(Cl)c4F)=NO2)[C@@H]3C(=O)Nc2ccc(C(=O)O)cc2)n1 [Example 250, 4-((S)-2-((R)-3-(3-Chloro-2-fluorophenyl)-4,5-dihydroisoxazole-5-carbonyl)-5-(3-methyl-1H-1,2,4-triazol-1-yl)-1,2,3,4-tetrahydroisoquinoline-1-carboxamido)benzoic acid, TFA salt] | 
16 |  | 14.7 | 601 | Cc1ncn(-c2cccc3c2CCN(C(=O)[C@H]2CC(c4cccc(Cl)c4F)=NO2)[C@H]3C(=O)Nc2ccc(C(=O)O)cc2)n1 [Example 251, 4-((R)-2-((R)-3-(3-Chloro-2-fluorophenyl)-4,5-dihydroisoxazole-5-carbonyl)-5-(3-methyl-1H-1,2,4-triazol-1-yl)-1,2,3,4-tetrahydroisoquinoline-1-carboxamido)benzoic acid, TFA salt] | 
17 |  |  |  | COC1CCN(c2cccc3c2CCN(C(=O)C2CC(=O)N(c4cccc(Cl)c4F)C2)C3C(=O)Nc2ccc(C(=O)O)cc2)CC1 (centres unmarked) [Example 255, 4-(2-(1-(3-chloro-2-fluorophenyl)-5-oxopyrrolidine-3-carbonyl)-5-(4-methoxypiperidin-1-yl)-1,2,3,4-tetrahydroisoquinoline-1-carboxamido)benzoic acid, TFA salt] | Ki [1, 4]: 218 nM; Ki ([2]; measured at 25° C., TFA salt): 7.13 nM
18 |  |  |  | COC1CCN(c2cccc3c2CCN(C(=O)C2CC(c4c(F)ccc(Cl)c4F)=NO2)C3C(=O)Nc2ccc(C(=O)O)cc2)CC1 (centres unmarked) [Example 256, 4-(2-(3-(3-chloro-2,6-difluorophenyl)-4,5-dihydroisoxazole-5-carbonyl)-5-(4-methoxypiperidin-1-yl)-1,2,3,4-tetrahydroisoquinoline-1-carboxamido)benzoic acid, TFA salt] | Ki [1, 4]: 198 nM; Ki ([2]; measured at 25° C., TFA salt): 12.5 nM
19 |  |  |  | COC1CCN(c2cccc3c2CCN(C(=O)C2CC(c4c(F)ccc(Cl)c4F)=NO2)C3C(=O)Nc2ccc(C(=O)O)cc2)CC1 (centres unmarked) [Example 257, 4-(2-(3-(3-chloro-2,6-difluorophenyl)-4,5-dihydroisoxazole-5-carbonyl)-5-(4-methoxypiperidin-1-yl)-1,2,3,4-tetrahydroisoquinoline-1-carboxamido)benzoic acid, TFA salt] | Ki [1, 4]: 24 nM; Ki ([2]; measured at 25° C., TFA salt): < 5 nM
20 |  |  |  | COC1CCN(c2cccc3c2CCN(C(=O)C2CC(=O)N(c4cccc(Cl)c4F)C2)C3C(=O)Nc2ccc(C(=O)O)cc2)CC1 (centres unmarked) [Example 260, 4-(2-(1-(3-chloro-2-fluorophenyl)-5-oxopyrrolidine-3-carbonyl)-5-(4-methoxypiperidin-1-yl)-1,2,3,4-tetrahydroisoquinoline-1-carboxamido)benzoic acid, TFA salt] | Ki [1, 4]: 4750 nM; Ki ([2]; measured at 25° C., TFA salt): 2460 nM
21 |  |  |  | CC(C)(O)C1CCN(c2cccc3c2CCN(C(=O)C2CC(c4cccc(Cl)c4F)=NO2)C3C(=O)Nc2ccc(C(=O)O)cc2)CC1 (centres unmarked) [Example 262, 4-(2-(3-(3-chloro-2-fluorophenyl)-4,5-dihydroisoxazole-5-carbonyl)-5-(4-(2-hydroxypropan-2-yl)piperidin-1-yl)-1,2,3,4-tetrahydroisoquinoline-1-carboxamido)benzoic acid, TFA salt] | Ki [1, 4]: 4.36 nM; Ki ([2]; measured at 25° C., TFA salt): < 5 nM

Row | SMILES | Ki [1, 3] [nM] | Ki ([2]; measured at 25° C.) [nM] | Ki ([1]; measured at 37° C. (*)) [nM] | also measured
22 | O=C(O)c1ccc(NC(=O)[C@@H]2c3cccc(N4CCN(CC(F)(F)F)CC4)c3CCN2C(=O)[C@H]2CC(c3cccc(Cl)c3F)=NO2)cc1 [Example 230, 4-((S)-2-((R)-3-(3-Chloro-2-fluorophenyl)-4,5-dihydroisoxazole-5-carbonyl)-5-(4-(2,2,2-trifluoroethyl)piperazin-1-yl)-1,2,3,4-tetrahydroisoquinoline-1-carboxamido)benzoic acid, 2 TFA salt] |  |  | 12.3 | Ki [2]: < 5 nM
